In patent US20210161842A1, “ABSCISIC ACID FOR THE TREATMENT OF SKIN DISEASES” (priority 2018, published 2021):

Columns and labels:
[1] = test system: Tumoral necrosis factor alpha (TNF-α) in THP-1; test: TNF-α levels (ELISA) in THP-1 monocytes inflamed with IL-17 and LPS; assay type: cell-based, human; settings: IL-17 3 ng/ml + LPS 10 μg/ml 6 hours, then 24 hours; lysate 200, 20, 1 and 0.1 μg/ml (all doses); dexamethasone 10 μM
Protocol: (§1) In human monocytes line THP-1 (derived from patients with acute monocytic leukemia) inflammation was induces with IL-17 (3 ng/ml of culture) and lipopolysaccharide (LPS; 10 μg/ml) for 6 hours. After that different doses of the C. longa callus lysate were added (200 μg/ml, 20 μg/ml, 1 μg/ml and 0.1 μg/ml) for 24 hours. The assay was performed in 96-well plates. Tumoral necrosis factor alpha (TNF-α) and interleukine-8 (IL-8) levels were quantified by ELISA (fluorimetry, BD OpEIA, USA). One control was an assay with only the inflammatory agents at the same concentration to induce inflammation. Another control was were dexamethasone (10 μM)+Il-17/LPS.

[2] = test system: lesional skin biopsies from psoriasis patients; test: Inflammatory marker mRNA in full-thickness lesional skin biopsies of psoriasis patients (ex vivo, RT-PCR); assay type: cell-based, human; settings: patient with psoriatic plaque; 8 days at 37° C.; ABA 2 μL/ml; dexamethasone as control
Protocol: (§2) In skin biopsies of patients with plaque psoriasis and from patients with atopic dermatitis, it was determined the expression of several inflammatory markers (Interleukin 23A (IL-23A), C-X-C motif chemokine 10 (CXCL10), Interleukin 8 (IL-8), Interleukin 20 (IL-20), Intercellular Adhesion Molecule 1 (ICAM-1), LNC2, DEF-4, Keratin 16 (K-16), Interferon gamma (IFNg) and Interleukin 17A (IL-17A) using commercially available PCR tools for their determinations (RT-PCR by RNeasy Fibrous Tissue Mini kit and cDNA Archive kit, Sigma, ABlprism 7900HT and TaqMan probes). As a control, dexamethasone was used.
(§3) Full-thickness lesional skin biopsies from untreated atopic dermatitis and psoriasis patients were incubated in KBM medium supplemented with Ca2Cl for 8 days at 37° C., conditions that preserve human skin lesional in vitro. The different culture conditions were media, ABA (2 μL/ml (+)-(S)-cis,trans-abscisic acid). Medium was changed every 2-3 days. After incubation biopsies were cryopreserved in OCT at −80 until total mRNA was extracted with miRNeasy kit (Qiagen) according to manufacturer's protocol. RNA quality and quantity were checked using Nanodrop. RNA was conserved in RNase free water at −80° C. until analysis. RNA was converted to cDNA using the HighCapacity cDNA Reverse Transcription Kits (Applied Biosystems). Quantitative PCR was performed using TaqMan PreAmp Master Mix Kit (Applied Bioscience) and the TaqMan Gene Expression Master Mix (Applied Bioscience) following the manufacturers' protocols. Gene expression was normalized to the house-keeping gene Glyceraldehyde 3-phosphate dehydrogenase (GADPH) and normalized for each condition as 1,8e (Ct GADPH-Ct target gene) ×10000. […]
This cell culture lysate was a callus cell lysate and it was used at a final concentration of 20 μg/ml of media (KBM medium supplemented with Ca2Cl as in the assay with ABA alone). As positive or comparative control, dexamethasone (1 μM in the culture) was used.
(§4) Patients from which biopsies were obtained included 5 psoriatic cases and 3 atopic dermatitis cases.

[3] = test system: lesional skin biopsies from atopic dermatitis patients; test: Inflammatory marker mRNA in full-thickness lesional skin biopsies of atopic dermatitis patients (ex vivo, RT-PCR); assay type: cell-based, human; settings: patient with atopic dermatitis plaque; 8 days at 37° C.; ABA 2 μL/ml; dexamethasone as control
Protocol: as §2, §3, §4

[4] = test system: interleukine-8 (IL-8) in THP-1; test: IL-8 levels (ELISA) in THP-1 monocytes inflamed with IL-17 and LPS; assay type: cell-based, human; settings: IL-17 3 ng/ml + LPS 10 μg/ml 6 hours, then 24 hours; lysate 200, 20, 1 and 0.1 μg/ml (all doses); dexamethasone 10 μM
Protocol: as §1

[5] = test system: Staphylococcus aureus ATCC 6538; test: cfu in S. aureus culture 24 hours after inoculum (bacteriostatic/bactericide effect); assay type: cell-based; settings: ABA 60 μg/ml, inoc. day 520000, control 3310000
Protocol: (§5) In this example several concentrations of ABA ((+)-(S)-cis,trans-abscisic acid (synonym of (S)-5-(1-hydroxy-2,6,6-trimethyl-4-oxo-2-cyclohexen-1-yl)-3-methyl-(2Z,4E)-pentadienoic acid)) (60 μg/ml, 30 μg/ml, 15 μg/ml, 5 μg/ml) were tested in a culture of P. acnes. Different amounts of the Morinda citrifolia cell lysate disclosed in Example 6 below were also tested in the same conditions (60%, 30%, 10%, 1%, 0.5%) by weight of cell lysate in the P. acnes culture. […] The same protocol was followed with a culture of S. aureus and with a culture of M. furfur. Data are shown in next Tables 1.1 to 1.6, where bacteriostatic and bactericide concentrations are listed. Underlined concentrations are the considered bacteriostatic or fungistatic amounts and that they avoid biofilm formation.
(§6) S. aureus, P. aeruginosa, P. acnes, and M. furfur subcultures were carried out from the stock by streaking onto determined medium and incubated according to the conditions specified for each of the microorganisms according to standard procedures and as indicated below:
(§7) Further it was tested a composition comprising 30% of Morinda citrifolia cell lysate and 30×10^−4% of abscisic acid ((+)-(S)-cis,trans-abscisic acid), glycerine and preservatives (q.s. 100%) in cultures of P. acnes, S. aureus, P. aeruginosa and M. furfur. The composition was used in the microbial culture at 5% and at 10% of the culture. […]

[6] = test system: Streptococcus mutans DSM 20523; test: cfu in S. mutans culture (bacteriostatic/bactericide effect); assay type: cell-based; settings: inoc. day 200000, control 109000 × 10
Protocol: (§8) Following the same scheme and procedure as in Examples 1-3 above, ABA 8((+)-(S)-cis,trans-abscisic acid)) and combinations of ABA with cell culture lysates or methyl jasmonate were tested on several microorganisms forming biofilms. As before, underlined concentrations are the considered bacteriostatic or fungistatic amounts and that they avoid biofilm formation.
(§9) Biofilm generation conditions and medium for the growth of the bacteria were those recommended by the supplier of each microorganism.

[7] = test system: Propionibacterium acnes DSM 1897; test: cfu in P. acnes culture 24 hours after inoculum (bacteriostatic/bactericide effect); assay type: cell-based; settings: inoc. day 320000, control 1490000
Protocol: as §5, §6, §7

[8] = test system: Epidermophytum floccosum DSM 10709; test: cfu in E. floccosum culture (fungistatic effect); assay type: cell-based; settings: ABA 60 μg/ml; inoc. day 136000, control 587500
Protocol: as §8, §9

[9] = test system: Candida albicans DSM 3454; test: cfu in C. albicans culture (fungistatic/fungicide effect); assay type: cell-based; settings: ABA 60 μg/ml; inoc. day 264000, control 456500
Protocol: as §8, §9

[10] = test system: Epidermophytum floccosum DSM 10709; test: E. floccosum biofilm on glass coupons (and planktonic growth in suspension); assay type: cell-based; settings: ABA 60 μg/ml; inoc. day 96667, control 374333
Protocol: (§10) Generation of representative biofilms on borosilicate glass coupons (12.7 mm diameter and a thickness of 3.7 mm) by immersion of the coupons in a suspension of each microorganism with culture medium and the compounds of interest was tested. Evaluation of the antibiofilm properties and study of adhesion, growth and viability of biofilms on the coupons was analyzed by fluorescence staining technique and visualization of live/dead microbial was done by Laser Scanning Confocal Microscopy. The sampling and analysis of coupons to determine biofilm population density was recorded as colony-forming units (cfu) per coupon. In parallel, planktonic cells quantification in suspension was also determined.
(§11) For the determination of biofilm populations the microbial population adhered to the coupon surface were quantified by dilution and plating after biofilm disaggregation process by sonication and vortex cycles. The planktonic cells (suspension) were determined by dilution and plating. The controls were, respectively the cells on coupons or in suspension after 5 days without any treatment.
(§12) Following procedure as disclosed in Example 3, particular compositions comprising ABA ((+)-(S)-cis,trans-abscisic acid) and cell lysate of a plant cell culture of Morinda citrifolia were also tested in an assay on glass coupons that also served as example of biofilm formation on abiotic surfaces. […]

[11] = test system: Candida albicans DSM 3454; test: C. albicans biofilm on glass coupons (and planktonic growth in suspension); assay type: cell-based; settings: ABA 60 μg/ml; inoc. day 184000, control 460000
Protocol: as §10, §11, §12

[12] = test system: Malassezia furfur ATCC 14521; test: cfu in M. furfur culture 24 hours after inoculum (fungistatic/fungicide effect); assay type: cell-based; settings: inoc. day 420000, control 1470000
Protocol: as §5, §6, §7

[13] = test system: Pseudomonas aeruginosa CECT 116; test: cfu in P. aeruginosa culture (bacteriostatic/bactericide effect); assay type: cell-based; settings: methyl jasmonate alone
Protocol: as §5
S. aureus, P. aeruginosa, P. acnes, and M. furfur subcultures were carried out from the stock by streaking onto determined medium and incubated according to the conditions specified for each of the microorganisms according to standard procedures and as indicated below: […]
Inventors also tested the effect of methyl jasmonate in P. acnes, S. aureus, M. furfur and P. aeruginosa. […] A bactericide effect was detected at 60% w/w.

`C[C@@H]1C[C@H]2[C@@H]3CCC4=CC(=O)C=C[C@]4(C)[C@@]3(F)[C@@H](O)C[C@]2(C)[C@@]1(O)C(=O)CO` [dexamethasone, reference compound] was tested, and the “TNF-α levels in relation to inflamed cells” value [1] was −56%, the “CXCL10 mRNA, % of inhibition vs Media (normalized)” value [2] was 8.7% and the “DEF-4 mRNA, % of inhibition vs Media (normalized)” value [2] was −15.7%. For the same molecule, the “ICAM-1 mRNA, % of inhibition vs Media (normalized)” value [2] was 17.1%, the “IFNg mRNA, % of inhibition vs Media (normalized)” value [2] was 72.7% and the “IL-8 mRNA, % of inhibition vs Media (normalized)” value [2] was −70.1%. The “IL-17A mRNA, % of inhibition vs Media (normalized)” value [2] was 116.9%, the “IL-20 mRNA, % of inhibition vs Media (normalized)” value [2] was 5.5% and the “K-16 mRNA, % of inhibition vs Media (normalized)” value [2] was 27.8%. For the same molecule, the “LNC2 mRNA, % of inhibition vs Media (normalized)” value [2] was 96.3%, the “CCL13 mRNA, % of inhibition vs Media (normalized)” value [3] was 28.4% and the “CCL17 mRNA, % of inhibition vs Media (normalized)” value [3] was −81.4%. The “CCL18 mRNA, % of inhibition vs Media (normalized)” value [3] was −9.1%, the “CCL26 mRNA, % of inhibition vs Media (normalized)” value [3] was −34.0% and the “FLG mRNA, % of inhibition vs Media (normalized)” value [3] was 270.4%. The “IFNg mRNA, % of inhibition vs Media (normalized)” value [3] was −100.0%, the “IL-13 mRNA, % of inhibition vs Media (normalized)” value [3] was −100.0% and the “K16 mRNA, % of inhibition vs Media (normalized)” value [3] was −39.8%. The “LOR mRNA, % of inhibition vs Media (normalized)” value [3] was 189.2% and the “IL-8 levels in relation to inflamed cells” value [4] was −33%.

In the case of (+)-(S)-cis,trans-abscisic acid [ABA], the CFU [5] is reported as 585000 CFU, the CFU ([6]; ABA 50 μg/ml) is reported as 289500 CFU and the CFU ([6]; ABA 60 μg/ml) is reported as 268000 CFU. For the same molecule, the CFU ([7]; ABA 30 μg/ml) was 158001 CFU, the CFU ([7]; ABA 60(*) μg/ml, (*)concentration considered bactericide) was 100000 CFU and the “CXCL10 mRNA, % of inhibition vs Media (normalized)” value [2] was 140.1%. The “DEF-4 mRNA, % of inhibition vs Media (normalized)” value [2] was −64.8%, the “ICAM-1 mRNA, % of inhibition vs Media (normalized)” value [2] was −40.6% and the “IFNg mRNA, % of inhibition vs Media (normalized)” value [2] was −10.7%. For the same molecule, the “IL-8 mRNA, % of inhibition vs Media (normalized)” value [2] was −71.5%, the “IL-17A mRNA, % of inhibition vs Media (normalized)” value [2] was 9.3% and the “IL-20 mRNA, % of inhibition vs Media (normalized)” value [2] was −27.8%. For the same molecule, the “K-16 mRNA, % of inhibition vs Media (normalized)” value [2] was 24.9%, the “LNC2 mRNA, % of inhibition vs Media (normalized)” value [2] was −45.7% and the CFU [8] was 287200 CFU. For the same molecule, the CFU [9] was 367500 CFU, the CFU on coupons [10] was 243667 CFU and the CFU on coupons [11] was 360000 CFU. The CFU ([12]; ABA 30 μg/ml) was 529000 CFU, the CFU ([12]; ABA 60(*) μg/ml, (*)considered fungicide) was 256000 CFU and the “CCL13 mRNA, % of inhibition vs Media (normalized)” value [3] was −59.2%. The “CCL17 mRNA, % of inhibition vs Media (normalized)” value [3] was −70.1%, the “CCL18 mRNA, % of inhibition vs Media (normalized)” value [3] was −72.9% and the “CCL26 mRNA, % of inhibition vs Media (normalized)” value [3] was −44.2%. The “FLG mRNA, % of inhibition vs Media (normalized)” value [3] was 8.3%, the “IFNg mRNA, % of inhibition vs Media (normalized)” value [3] was 9.2% and the “IL-13 mRNA, % of inhibition vs Media (normalized)” value [3] was −79.0%. The “K16 mRNA, % of inhibition vs Media (normalized)” value [3] was −69.1% and the “LOR mRNA, % of inhibition vs Media (normalized)” value [3] was −45.5%.

With `CC/C=C\CC1C(=O)CCC1CC(=O)OC` (centres unmarked) [methyl jasmonate] the “percentage by weight in the culture media with bactericide effect” value [13] was 60 % w/w.
